Experimental data: patent US20120264685A1 (priority 2009, published 2012)
Where a SMILES comes first, the peptide text is derived from it. [ ]: non-standard residue; d: D form. ξ: configuration not given here. ξαMeBip(2'-Et,4'-OMe) = CCc1cc(OC)ccc1-c1ccc(CC(C)(N)C(=O)O)cc1; ξBip(2'-Et-4'-OMe) = CCc1cc(OC)ccc1-c1ccc(CC(N)C(=O)O)cc1; ξαMePhe(2,6-F2) = CC(N)(Cc1c(F)cccc1F)C(=O)O; ξαMe(hhPhe) = CC(N)(CCCc1ccccc1)C(=O)O; ξαMePhe(2-F) = CC(N)(Cc1ccccc1F)C(=O)O; ξhhPhe = NC(CCCc1ccccc1)C(=O)O; ξαMeD = CC(N)(CC(=O)O)C(=O)O; ξαMeP = CC1(C(=O)O)CCCN1; ξαMeS = CC(N)(CO)C(=O)O; Aib = CC(C)(N)C(=O)O

Columns and labels:
[1] = system: RIN5F (Rat Insulinoma) cells; assay: In vitro glucose-dependent insulin secretion (RIN5F cell assay); format: cell-based; details: 16.7-mM glucose load, n = 3, mean ± S.D.
How it was run: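 Rat RIN5F cells were preincubated 40 min in Krebs-Ringer buffer with 1.1 mM glucose and 0.5% BSA, pH 7.4, then exposed to test peptidomimetics for 30 min at 37 °C with 16.7 mM or 0 mM glucose. Supernatant insulin was measured by rat insulin ELISA and normalised to total protein (BCA), as pg/μg.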

DPP IV enzyme = DPP IV enzyme (Homo sapiens, UniProt P27487); assay: Stability against DPP IV enzyme; format: in vitro ADME; details: 2 μM, 37° C.; for half-life: read-out: half-life (t1/2) with DPP-IV enzyme
Chain of DPP IV enzyme (P27487 whole entry, species assumed, the tested form may be a part): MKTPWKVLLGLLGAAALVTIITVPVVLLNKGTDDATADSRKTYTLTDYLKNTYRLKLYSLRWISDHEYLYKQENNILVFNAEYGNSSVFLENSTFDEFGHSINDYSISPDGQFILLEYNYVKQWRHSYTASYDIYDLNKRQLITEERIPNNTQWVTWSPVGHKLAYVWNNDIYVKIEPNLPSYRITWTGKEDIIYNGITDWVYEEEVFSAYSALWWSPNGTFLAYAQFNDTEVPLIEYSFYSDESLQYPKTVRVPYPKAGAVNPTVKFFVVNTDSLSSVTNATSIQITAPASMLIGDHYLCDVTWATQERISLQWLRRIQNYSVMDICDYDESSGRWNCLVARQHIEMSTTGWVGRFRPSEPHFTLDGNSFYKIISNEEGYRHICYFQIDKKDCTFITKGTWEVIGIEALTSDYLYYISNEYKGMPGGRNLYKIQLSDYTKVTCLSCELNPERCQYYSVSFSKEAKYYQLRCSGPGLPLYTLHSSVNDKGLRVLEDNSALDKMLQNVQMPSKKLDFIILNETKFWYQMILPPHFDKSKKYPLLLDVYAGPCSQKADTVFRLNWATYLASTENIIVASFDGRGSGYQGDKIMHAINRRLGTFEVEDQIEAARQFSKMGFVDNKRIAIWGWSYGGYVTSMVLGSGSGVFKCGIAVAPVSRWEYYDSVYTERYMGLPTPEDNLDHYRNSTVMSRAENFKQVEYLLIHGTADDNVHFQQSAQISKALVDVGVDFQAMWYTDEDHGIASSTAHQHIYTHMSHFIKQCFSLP
Method: (§1) Different peptidomimetics (final concentration 2 μM) were incubated with either DPP IV (1:25 mU) or pooled human plasma (7.5 μL) or simulated gastric fluid (pH 1.5; composition HCl, NaCl and Pepsin) or simulated intestinal fluid (pH 7.5) or human liver microsomes, for 0, 2, 4, 6, 12 and 24 h (37° C.; 50 mM triethanolamine-HCl buffer; pH 7.8). […] Reactions were terminated by the addition of TFA/H2O ([…], 10% (v/v)). The reaction products were then applied to a Vydac C18 analytical column (4.6×250-mm) and the major degradation fragment separated from intact peptidomimetic. The column was equilibrated with TFA/H20, at a flow rate of 1 mL/min. Using 0.1% (v/v) TFA in 70% acetonitrile/H2O, the concentration of acetonitrile in the eluting solvent was raised from 0% to 28% over 10 min and from 28% to 42% over 30 min. The absorbance was monitored at 206 nm using UV detector and peaks were collected manually prior to ESI-MS analysis. Area under the curve was measured for test peptidomimetics and their metabolites and percentage degradation were calculated at each time point over a period of 24 h.

[2] = Stability in human plasma; format: in vitro ADME; details: 2 μM, 37° C.; for half-life: human, plasma, read-out: half-life (t1/2) in human plasma
Method: as §1

[3] = Stability in simulated gastric fluid; format: in vitro ADME; details: 2 μM, 37° C.; for % degradation in 24 h when incubated with simulated gastric fluid: pH 1.5, 24 h; for half-life: simulated gi fluid, read-out: half-life (t1/2) in simulated gastric fluid; for half-life / half-life (t1/2) in simulated gastric fluid: pH 1.5
Method: (§2) Reactions were terminated by the addition of TFA/H2O ([…], 10% (v/v)). […] The column was equilibrated with TFA/H20, at a flow rate of 1 mL/min. […] The absorbance was monitored at 206 nm using UV detector and peaks were collected manually prior to ESI-MS analysis.

[4] = Stability in simulated intestinal fluid; format: in vitro ADME; details: 2 μM, 37° C.; for % degradation in 24 h when incubated with simulated intestinal fluid: pH 7.5, 24 h; for half-life: simulated gi fluid, read-out: half-life (t1/2) in simulated intestinal fluid; for half-life / half-life (t1/2) in simulated intestinal fluid: pH 7.5
Method: as §2

[5] = Stability in liver microsomes; format: in vitro ADME, human; details: 2 μM, 37° C.; for half-life: human, microsomes, read-out: half-life (t1/2) in liver microsomes
Method: as §2

| % degradation in 24 h when incubated with DPP-IV enzyme (DPP IV enzyme) | half-life (DPP IV enzyme) | % degradation in 24 h when incubated with human plasma [2] | half-life [2] | % degradation in 24 h when incubated with simulated gastric fluid [3] | half-life [3] | % degradation in 24 h when incubated with simulated intestinal fluid [4] | half-life [4] | half-life (t1/2) in liver microsomes [5] | % degradation in 24 h when incubated with liver microsomes [5] | half-life (t1/2) in human plasma [2] | half-life [5] | half-life (t1/2) in simulated gastric fluid [3] | half-life (t1/2) in simulated intestinal fluid [4] | Compound | Insulin secretion ([1]; 0.1 nM test compd.) | Insulin secretion ([1]; 1 nM test compd.) | Insulin secretion ([1]; 10 nM test compd.) |
| --- | --- | --- | --- | --- | --- | --- | --- | --- | --- | --- | --- | --- | --- | --- | --- | --- | --- |
| 00% | > 24 h | 00% | > 24 h | 00% | > 24 h | 00% | > 24 h | (5) h | 35% | – | – | – | – | CCc1cc(OC)ccc1-c1ccc(CC(C)(NC(=O)C(C)(CC(=O)O)NC(=O)[C@H](CO)NC(=O)[C@@H](NC(=O)[C@H](Cc2ccccc2)NC(=O)[C@@H](NC(=O)CNC(=O)[C@H](CCC(=O)O)NC(=O)[C@H](C)NC(=O)[C@H](Cc2c[nH]cn2)NC(=O)[C@@H](N)C(C)C)[C@@H](C)O)[C@@H](C)O)C(=O)NC(CCCc2ccccc2)C(N)=O)cc1 (some centres unmarked) [compound 62] (H-VHAEGTFTS[ξαMeD][ξαMeBip(2'-Et,4'-OMe)][ξhhPhe]-NH2) | 16.6 ± 0.41 pg/µg/h | 22.9 ± 0.32 pg/µg/h | 36.7 ± 0.11 pg/µg/h |
| 72% | – | 70% | – | 100% | 0.5 h | 100% | 0.5 h | – | 100% | (9) h | 0.5 h | – | – | CCc1cc(OC)ccc1-c1ccc(CC(C)(NC(=O)[C@H](CC(=O)O)NC(=O)C(C)(CO)NC(=O)[C@@H](NC(=O)C(C)(Cc2ccccc2F)NC(=O)[C@@H](NC(=O)CNC(=O)[C@H](CCC(N)=O)NC(=O)[C@H](CO)NC(=O)[C@H](Cc2c[nH]cn2)NC(=O)[C@@H](N)C(C)C)[C@@H](C)O)[C@@H](C)O)C(=O)NC(C)(CCCc2ccccc2)C(N)=O)cc1 (some centres unmarked) [compound 165] (H-VHSQGT[ξαMePhe(2-F)]T[ξαMeS]D[ξαMeBip(2'-Et,4'-OMe)][ξαMe(hhPhe)]-NH2) | 12.1 ± 0.42 pg/µg/h | 14.6 ± 0.41 pg/µg/h | 27.8 ± 0.46 pg/µg/h |
| 75% | 9 h | 77% | 8 h | 14% | – | 45% | – | – | 81% | – | 1 h | (8) h | (6) h | CCc1cc(OC)ccc1-c1ccc(CC(C)(NC(=O)C(C)(CC(=O)O)NC(=O)[C@H](CO)NC(=O)[C@@H](NC(=O)C(C)(Cc2c(F)cccc2F)NC(=O)[C@@H](NC(=O)CNC(=O)[C@H](CCC(=O)O)NC(=O)[C@H](CO)NC(=O)[C@H](Cc2c[nH]cn2)NC(=O)[C@@H](N)C(C)C)[C@@H](C)O)[C@@H](C)O)C(=O)NC(C)(CCCc2ccccc2)C(N)=O)cc1 (some centres unmarked) [compound 201] (H-VHSEGT[ξαMePhe(2,6-F2)]TS[ξαMeD][ξαMeBip(2'-Et,4'-OMe)][ξαMe(hhPhe)]-NH2) | 15.4 ± 0.14 pg/µg/h | 21.2 ± 0.18 pg/µg/h | 35.6 ± 0.17 pg/µg/h |
| 70% | 9 h | 71% | 8 h | 14% | – | 40% | – | – | 78% | – | 1 h | (8) h | (6) h | CCc1cc(OC)ccc1-c1ccc(CC(NC(=O)[C@H](CC(=O)O)NC(=O)[C@H](CO)NC(=O)[C@@H](NC(=O)[C@H](Cc2ccccc2)NC(=O)[C@@H](NC(=O)CNC(=O)[C@H](CCC(N)=O)NC(=O)[C@H](CO)NC(=O)[C@H](Cc2c[nH]cn2)NC(=O)[C@@H](N)C(C)C)[C@@H](C)O)[C@@H](C)O)C(=O)NC(C)(CCCc2ccccc2)C(N)=O)cc1 (some centres unmarked) [compound 81] (H-VHSQGTFTSD[ξBip(2'-Et-4'-OMe)][ξαMe(hhPhe)]-NH2) | 16.8 ± 0.20 pg/µg/h | 22.7 ± 0.29 pg/µg/h | 36.6 ± 0.31 pg/µg/h |
| 70% | – | 71% | – | 100% | 0.5 h | 100% | 0.5 h | – | 100% | (9) h | 0.5 h | – | – | CCc1cc(OC)ccc1-c1ccc(CC(NC(=O)C(C)(CC(=O)O)NC(=O)C(C)(CO)NC(=O)[C@@H](NC(=O)[C@H](Cc2ccccc2)NC(=O)[C@@H](NC(=O)CNC(=O)[C@H](CCC(=O)O)NC(=O)[C@H](C)NC(=O)[C@H](Cc2c[nH]cn2)NC(=O)[C@@H](N)C(C)C)[C@@H](C)O)[C@@H](C)O)C(=O)NC(C)(CCCc2ccccc2)C(N)=O)cc1 (some centres unmarked) [compound 112] (H-VHAEGTFT[ξαMeS][ξαMeD][ξBip(2'-Et-4'-OMe)][ξαMe(hhPhe)]-NH2) | 12.3 ± 0.33 pg/µg/h | 14.8 ± 0.16 pg/µg/h | 28.1 ± 0.22 pg/µg/h |
| 76% | 9 h | 78% | 8 h | 12% | – | 55% | – | – | 79% | – | 1 h | (8) h | (6) h | CCc1cc(OC)ccc1-c1ccc(CC(C)(NC(=O)C(C)(CC(=O)O)NC(=O)[C@H](CO)NC(=O)[C@@H](NC(=O)C(C)(Cc2ccccc2F)NC(=O)[C@@H](NC(=O)CNC(=O)[C@H](CCC(N)=O)NC(=O)C(C)(C)NC(=O)[C@H](Cc2c[nH]cn2)NC(=O)[C@@H](N)C(C)C)[C@@H](C)O)[C@@H](C)O)C(=O)NC(C)(CCCc2ccccc2)C(N)=O)cc1 (some centres unmarked) [compound 191] (H-VH[Aib]QGT[ξαMePhe(2-F)]TS[ξαMeD][ξαMeBip(2'-Et,4'-OMe)][ξαMe(hhPhe)]-NH2) | 16.1 ± 0.22 pg/µg/h | 22.1 ± 0.26 pg/µg/h | 36.0 ± 0.36 pg/µg/h |
| 00% | > 24 h | 00% | > 24 h | 41% | 4 h | 00% | > 24 h | – | 80% | – | 2 h | – | – | CCc1cc(OC)ccc1-c1ccc(CC(C)(NC(=O)C(C)(CC(=O)O)NC(=O)[C@H](CO)NC(=O)[C@@H](NC(=O)[C@H](Cc2ccccc2)NC(=O)[C@@H](NC(=O)CNC(=O)[C@H](CCC(=O)O)NC(=O)C2(C)CCCN2C(=O)[C@H](Cc2c[nH]cn2)NC(=O)[C@@H](N)C(C)C)[C@@H](C)O)[C@@H](C)O)C(=O)NC(C)(CCCc2ccccc2)C(N)=O)cc1 (some centres unmarked) [compound 188] (H-VH[ξαMeP]EGTFTS[ξαMeD][ξαMeBip(2'-Et,4'-OMe)][ξαMe(hhPhe)]-NH2) | 12.9 ± 0.14 pg/µg/h | 15.8 ± 0.13 pg/µg/h | 29.9 ± 0.15 pg/µg/h |
